In ChEMBL document CHEMBL1833956, “Potent and novel 11β-HSD1 inhibitors identified from shape and docking based virtual screening” (Bioorg Med Chem Lett, 2011):
pIC50: −log10 of the molar value.

Assays:
[1] = molecular target: T1, 11-beta-hydroxysteroid dehydrogenase 1 (Homo sapiens, UniProt P28845); test: Inhibition of human 11beta HSD1 expressed in HEK293 cells assessed as assessed as inhibition of [1,2-(n)3H]cortisone to [3H]-cortisol at 100 uM after 60 mins by scintillation proximity assay
Target sequence in this assay (P28845 whole entry, looked up): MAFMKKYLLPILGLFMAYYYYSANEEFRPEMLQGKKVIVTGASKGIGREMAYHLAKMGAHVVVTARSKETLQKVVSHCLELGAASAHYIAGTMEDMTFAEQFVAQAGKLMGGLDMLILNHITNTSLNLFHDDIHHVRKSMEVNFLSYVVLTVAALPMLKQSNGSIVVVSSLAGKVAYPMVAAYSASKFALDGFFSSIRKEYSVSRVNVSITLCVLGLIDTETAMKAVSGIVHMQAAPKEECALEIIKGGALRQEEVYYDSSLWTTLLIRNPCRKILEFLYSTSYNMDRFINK

CYP3A4 = CYP3A4 (Homo sapiens, UniProt P08684); test: Inhibition of CYP3A4 in human liver microsomes using NADPH at 10 uM by LC-MS/MS analysis relative to control; type: ADME, Microsome
Sequence of CYP3A4 (P08684 whole entry): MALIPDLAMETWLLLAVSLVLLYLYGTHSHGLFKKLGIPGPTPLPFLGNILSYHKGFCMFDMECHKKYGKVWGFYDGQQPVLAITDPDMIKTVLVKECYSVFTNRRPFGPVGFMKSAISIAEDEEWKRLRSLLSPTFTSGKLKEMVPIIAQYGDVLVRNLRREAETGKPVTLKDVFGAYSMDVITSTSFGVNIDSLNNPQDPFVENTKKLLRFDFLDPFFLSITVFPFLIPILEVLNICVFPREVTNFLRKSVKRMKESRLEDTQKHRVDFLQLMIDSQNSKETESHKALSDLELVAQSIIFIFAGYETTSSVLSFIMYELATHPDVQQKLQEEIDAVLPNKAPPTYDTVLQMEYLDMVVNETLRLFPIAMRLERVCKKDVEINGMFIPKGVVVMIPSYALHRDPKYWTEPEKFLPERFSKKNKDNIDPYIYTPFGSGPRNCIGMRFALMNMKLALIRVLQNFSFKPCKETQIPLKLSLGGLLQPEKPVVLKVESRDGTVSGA

[2] = Protein binding in plasma; type: ADME, cell-free; conditions: read-out: PPB
[3] = molecular target: T1, 11-beta-hydroxysteroid dehydrogenase 1; test: Inhibition of human 11beta HSD1 expressed in HEK293 cells assessed as assessed as inhibition of [1,2-(n)3H]cortisone to [3H]-cortisol after 60 mins by scintillation proximity assay; type: cell-based
Target sequence in this assay (P28845 whole entry): as the sequence (P28845 whole entry, looked up) above

Cytochrome P450 2D6 = Cytochrome P450 2D6 (Homo sapiens, UniProt P10635); test: Inhibition of CYP2D6 at 10 uM; type: ADME
Sequence of Cytochrome P450 2D6 (P10635 whole entry): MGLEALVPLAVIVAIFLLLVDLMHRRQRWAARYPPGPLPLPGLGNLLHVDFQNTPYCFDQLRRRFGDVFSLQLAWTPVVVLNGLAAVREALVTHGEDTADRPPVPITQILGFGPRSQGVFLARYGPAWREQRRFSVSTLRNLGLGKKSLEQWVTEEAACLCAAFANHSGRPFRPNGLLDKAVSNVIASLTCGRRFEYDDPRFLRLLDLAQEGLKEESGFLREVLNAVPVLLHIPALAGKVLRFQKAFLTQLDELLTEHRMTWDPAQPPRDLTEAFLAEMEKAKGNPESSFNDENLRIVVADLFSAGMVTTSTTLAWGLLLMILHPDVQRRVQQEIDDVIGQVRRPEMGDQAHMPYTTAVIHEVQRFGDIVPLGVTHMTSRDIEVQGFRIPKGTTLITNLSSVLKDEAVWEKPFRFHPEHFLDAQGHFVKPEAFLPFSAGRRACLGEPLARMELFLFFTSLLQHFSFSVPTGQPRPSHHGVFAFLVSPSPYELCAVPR

Homo sapiens = organism: Homo sapiens; test: Selectivity ratio of IC50 for human 11beta HSD2 to IC50 for human 11beta HSD1
[4] = molecular target: T2, 11-beta-hydroxysteroid dehydrogenase type 2 (Homo sapiens, UniProt P80365); test: Inhibition of human 11beta HSD2
T2 sequence (P80365 whole entry): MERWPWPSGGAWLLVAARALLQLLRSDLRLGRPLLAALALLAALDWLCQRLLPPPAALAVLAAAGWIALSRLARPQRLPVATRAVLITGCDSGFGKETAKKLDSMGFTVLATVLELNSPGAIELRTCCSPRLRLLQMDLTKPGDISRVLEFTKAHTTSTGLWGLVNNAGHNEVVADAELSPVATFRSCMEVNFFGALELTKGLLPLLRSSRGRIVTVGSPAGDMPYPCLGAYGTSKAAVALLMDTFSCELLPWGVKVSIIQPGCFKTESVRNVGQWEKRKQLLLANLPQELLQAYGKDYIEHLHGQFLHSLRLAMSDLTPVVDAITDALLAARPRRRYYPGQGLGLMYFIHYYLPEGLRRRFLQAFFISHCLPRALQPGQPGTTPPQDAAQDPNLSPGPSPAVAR

Compound	inhibition [1] [%]	inhibition at 10 µM (CYP3A4) [%]	fraction unbound [2]	pIC50 [3]	inhibition (INH) (Cytochrome P450 2D6)	Ratio IC50 (Homo sapiens)	pIC50 [4]
CN(Cc1ccccc1)S(=O)(=O)c1ccc(Oc2cccc(Cl)c2C#N)cc1	< 50	17	≤ 0.05	7.38	Not Active	2420	–
N#C/C(=C\c1ccc2c(c1)CCO2)S(=O)(=O)c1ccc(Cl)cc1Cl	–	26	≤ 0.05	–	Not Active	–	–
O=C(CSc1nnc(-c2ccccc2)c(-c2ccccc2)n1)N1CCc2ccccc21	–	36	≤ 0.05	7.24	Active	200	5.05
O=S(=O)(c1ccc2ccccc2c1)N1CC=C(c2ccccc2)CC1	–	14	≤ 0.05	–	Not Active	–	–
O=S(=O)(Nc1cccc(CCc2ccccn2)c1)c1cc(Cl)ccc1Cl	–	82	≤ 0.1	6.99	Active	–	–
CCN(CC)C(=O)Cc1csc(NS(=O)(=O)c2cccc(Cl)c2C)n1	–	–	–	7.55	–	–	–
O=S(=O)(c1ccc2ccccc2c1)N1CCN(c2ncc(C(F)(F)F)cc2Cl)CC1	–	13	≤ 0.1	–	Not Active	–	–
Fc1cccc(Cl)c1CSc1nnc(-c2ccco2)n1-c1ccc(OCc2ccccc2)cc1	–	73	≤ 0.05	–	Not Active	–	–
O=S(=O)(c1ccc2ccccc2c1)N1CCCN(Cc2c(F)cccc2Cl)CC1	–	26	≤ 0.1	–	Not Active	–	–
